From US20250186454A1, “METHODS FOR TREATING ABERRANT BEHAVIOR AND MOTOR ACTIVITY” (LAPKO INC, dba AFECTA PHARMACEUTICALS, priority 2023, published 2025)

Tests used:
patients with ASD = assay: open-label observational trial, eight weeks, response scored using the ABC-C scale; type: in vivo, human
Protocol: In an open-label observational trial by an investigator, 11 patients with ASD were treated for eight weeks with molindone starting at 5 mg/day and the dosage increased by the patient and caregiver in 5 mg increments as tolerated by the subjects up to a maximum dose of 25 mg/day or until amelioration of the aberrant behaviors was seen. Patient response was scored using the ABC-C scale.

[1] = pharmacokinetic study of equivalent doses by gastric absorption compared to sublingual absorption; type: in vivo
Protocol: A study of equivalent doses of molindone administered by gastric absorption compared to sublingual absorption. […] Molindone is primarily, if not exclusively, metabolized by the liver (hepatic metabolism). The first metabolite of molindone obtained by liver metabolism is 3-ethyl-2-(hydroxymethyl)-5-[(morpholin-4-yl)methyl]-1,5,6,7tetrahydro-4H-indol-4-one. The level of this metabolite was also measured at the Cmax of the sublingual and gastric dosing regimens.

[2] = N=11, Week 8 vs baseline, p <0.0001

somnolence during the course of the study (patients with ASD; ASD patients, eight weeks): none complained of increased somnolence | T1/2 ([1]; non-gastric dosing regimen compared to gastric dosing): longer | area under the curve (AUC) ([1]; sublingual dosing compared to gastric dosing): better | Cmax (highest plasma concentration of the drug) ([1]; sublingual dosing compared to gastric dosing, equivalent doses, FIG. 1): higher
Structure (SMILES): CCc1c(C)[nH]c2c1C(=O)C(CN1CCOCC1)CC2 (stereo not drawn) [molindone, 3-ethyl-2-methyl-5-(morpholin-4-ylmethyl)-1,5,6,7-tetrahydroindol-4-one]
body weight during the course of therapy (subjective responses from caregivers and subjects) (patients with ASD; ASD patients, eight weeks): noticeable and desirable weight loss | ABC-C Total Score (0-174), Decrease from baseline (%) (patients with ASD; N=11, Week 8 vs baseline, p 0.0001): 69.9% | ABC-C Inappropriate speech (0-12), Decrease from baseline (%) (patients with ASD; N=11, Week 8 vs baseline, p 0.0048): 77% | ABC-C Lethargic/Withdrawn (0-48), Decrease from baseline (%) (patients with ASD; N=11, Week 8 vs baseline, p 0.0069): 63.2% | ABC-C Stereotypy (0-21), Decrease from baseline (%) (patients with ASD; N=11, Week 8 vs baseline, p 0.0081): 72.8% | ABC-C Hyperactivity/Noncompliance (0-48), Decrease from baseline (%) (patients with ASD; [2]): 62.4% | ABC-C Irratability (0-45), Decrease from baseline (%) (patients with ASD; [2]): 76.6% | ABC-C Scale Mean Score, Inappropriate speech (0-12), Week 8 (patients with ASD; N=11 ASD patients, 5 up to 25 mg/day, baseline 9.6, p 0.0048): 2.2 | ABC-C Scale Mean Score, Stereotypy (0-21), Week 8 (patients with ASD; N=11 ASD patients, 5 up to 25 mg/day, baseline 11.8, p 0.0081): 3.2 | ABC-C Scale Mean Score, Lethargic/Withdrawn (0-48), Week 8 (patients with ASD; N=11 ASD patients, 5 up to 25 mg/day, baseline 16.5, p 0.0069): 6.4 | ABC-C Scale Mean Score, Hyperactivity/Noncompliance (0-48), Week 8 (patients with ASD; N=11 ASD patients, 5 up to 25 mg/day, baseline 29.8, p <0.0001): 11.2 | ABC-C Scale Mean Score, Irratability (0-45), Week 8 (patients with ASD; N=11 ASD patients, 5 up to 25 mg/day, baseline 35.6, p <0.0001): 8.3 | ABC-C Scale Mean Score, Total Score (0-174), Week 8 (patients with ASD; N=11 ASD patients, 5 up to 25 mg/day, baseline 103.3, p 0.0001): 31.3 | reduction of symptoms in all five ABC-C categories, including stereotypy (patients with ASD; during the eight-week study, all p values less than 0.05): significant improvement
